The supplement of paper PMC8882468

system: HCI-024 (organoid from a breast cancer xenograft); test: CTG-3D luminescence at 96 h relative to day-0 seeding control (ratio to day 0); higher = more growth / less cytotoxicity; PDxO 3D drug screen (set 2), 96 h, CTG-3D normalised to day-0 seeding control.; settings: 10 µM; days in culture: 202

In order of rising “CTG-3D luminescence at 96 h” value:
1. CS(=O)(=O)CCNCc1ccc(-c2ccc3ncnc(Nc4ccc(OCc5cccc(F)c5)c(Cl)c4)c3c2)o1 [lapatinib]  0.832
2. Nc1cc(C(F)(F)F)c(-c2cc(N3CCOCC3)nc(N3CCOCC3)n2)cn1 [buparlisib]  0.995
3. Cc1c(CN2CCN(C(=O)[C@H](C)O)CC2)sc2c(N3CCOCC3)nc(-c3cnc(N)nc3)nc12 [apitolisib]  1.03
4. CC(=O)c1c(C)c2cnc(Nc3ccc(N4CCNCC4)cn3)nc2n(C2CCCC2)c1=O [palbociclib]  1.1
5. CCOc1ccn(-c2ccc(F)cc2)c(=O)c1C(=O)Nc1ccc(Oc2ccnc(N)c2Cl)c(F)c1 [ASLAN002]  1.41
6. C[C@@H](Nc1cc(F)cc(F)c1)c1cc(C(=O)N(C)C)cc2c(=O)cc(N3CCOCC3)oc12 [AZD-8186]  1.61

same assay, conditions: 10 µM; days in culture: 231

In order of falling “CTG-3D luminescence at 96 h” value:
1. CCOc1ccn(-c2ccc(F)cc2)c(=O)c1C(=O)Nc1ccc(Oc2ccnc(N)c2Cl)c(F)c1 [ASLAN002]  1.02
2. C[C@@H](Nc1cc(F)cc(F)c1)c1cc(C(=O)N(C)C)cc2c(=O)cc(N3CCOCC3)oc12 [AZD-8186]  0.93
3. CC(=O)c1c(C)c2cnc(Nc3ccc(N4CCNCC4)cn3)nc2n(C2CCCC2)c1=O [palbociclib]  0.74
4. Nc1cc(C(F)(F)F)c(-c2cc(N3CCOCC3)nc(N3CCOCC3)n2)cn1 [buparlisib]  0.659
5. Cc1c(CN2CCN(C(=O)[C@H](C)O)CC2)sc2c(N3CCOCC3)nc(-c3cnc(N)nc3)nc12 [apitolisib]  0.527
6. CS(=O)(=O)CCNCc1ccc(-c2ccc3ncnc(Nc4ccc(OCc5cccc(F)c5)c(Cl)c4)c3c2)o1 [lapatinib]  0.512
7. CC(C)n1nc(-c2ccc3oc(N)nc3c2)c2c(N)ncnc21 [sapanisertib]  0.241

same assay, conditions: 10 µM; days in culture: 254

In order of rising “CTG-3D luminescence at 96 h” value:
1. CC(C)n1nc(-c2ccc3oc(N)nc3c2)c2c(N)ncnc21 [sapanisertib]  0.541
2. CS(=O)(=O)CCNCc1ccc(-c2ccc3ncnc(Nc4ccc(OCc5cccc(F)c5)c(Cl)c4)c3c2)o1 [lapatinib]  0.584
3. Cc1c(CN2CCN(C(=O)[C@H](C)O)CC2)sc2c(N3CCOCC3)nc(-c3cnc(N)nc3)nc12 [apitolisib]  0.608
4. Nc1cc(C(F)(F)F)c(-c2cc(N3CCOCC3)nc(N3CCOCC3)n2)cn1 [buparlisib]  0.637
5. CC(=O)c1c(C)c2cnc(Nc3ccc(N4CCNCC4)cn3)nc2n(C2CCCC2)c1=O [palbociclib]  1.25
6. C[C@@H](Nc1cc(F)cc(F)c1)c1cc(C(=O)N(C)C)cc2c(=O)cc(N3CCOCC3)oc12 [AZD-8186]  1.55
7. CCOc1ccn(-c2ccc(F)cc2)c(=O)c1C(=O)Nc1ccc(Oc2ccnc(N)c2Cl)c(F)c1 [ASLAN002]  1.96

same assay, conditions: 100 µM; days in culture: 202

In order of rising “CTG-3D luminescence at 96 h” value:
1. CS(=O)(=O)CCNCc1ccc(-c2ccc3ncnc(Nc4ccc(OCc5cccc(F)c5)c(Cl)c4)c3c2)o1 [lapatinib]  0.0105
2. CC(C)n1nc(-c2ccc3oc(N)nc3c2)c2c(N)ncnc21 [sapanisertib]  0.155
3. Cc1c(CN2CCN(C(=O)[C@H](C)O)CC2)sc2c(N3CCOCC3)nc(-c3cnc(N)nc3)nc12 [apitolisib]  0.293
4. CC(=O)c1c(C)c2cnc(Nc3ccc(N4CCNCC4)cn3)nc2n(C2CCCC2)c1=O [palbociclib]  0.337
5. Nc1cc(C(F)(F)F)c(-c2cc(N3CCOCC3)nc(N3CCOCC3)n2)cn1 [buparlisib]  0.453
6. C[C@@H](Nc1cc(F)cc(F)c1)c1cc(C(=O)N(C)C)cc2c(=O)cc(N3CCOCC3)oc12 [AZD-8186]  0.461
7. CCOc1ccn(-c2ccc(F)cc2)c(=O)c1C(=O)Nc1ccc(Oc2ccnc(N)c2Cl)c(F)c1 [ASLAN002]  0.658

same assay, conditions: 100 µM; days in culture: 231

In order of rising “CTG-3D luminescence at 96 h” value:
1. CS(=O)(=O)CCNCc1ccc(-c2ccc3ncnc(Nc4ccc(OCc5cccc(F)c5)c(Cl)c4)c3c2)o1 [lapatinib]  0.00851
2. CC(C)n1nc(-c2ccc3oc(N)nc3c2)c2c(N)ncnc21 [sapanisertib]  0.0656
3. Cc1c(CN2CCN(C(=O)[C@H](C)O)CC2)sc2c(N3CCOCC3)nc(-c3cnc(N)nc3)nc12 [apitolisib]  0.227
4. Nc1cc(C(F)(F)F)c(-c2cc(N3CCOCC3)nc(N3CCOCC3)n2)cn1 [buparlisib]  0.357
5. C[C@@H](Nc1cc(F)cc(F)c1)c1cc(C(=O)N(C)C)cc2c(=O)cc(N3CCOCC3)oc12 [AZD-8186]  0.399
6. CCOc1ccn(-c2ccc(F)cc2)c(=O)c1C(=O)Nc1ccc(Oc2ccnc(N)c2Cl)c(F)c1 [ASLAN002]  0.471
7. CC(=O)c1c(C)c2cnc(Nc3ccc(N4CCNCC4)cn3)nc2n(C2CCCC2)c1=O [palbociclib]  0.498

same assay, conditions: 100 µM; days in culture: 254

In order of falling “CTG-3D luminescence at 96 h” value:
1. CCOc1ccn(-c2ccc(F)cc2)c(=O)c1C(=O)Nc1ccc(Oc2ccnc(N)c2Cl)c(F)c1 [ASLAN002]  1
2. Nc1cc(C(F)(F)F)c(-c2cc(N3CCOCC3)nc(N3CCOCC3)n2)cn1 [buparlisib]  0.959
3. C[C@@H](Nc1cc(F)cc(F)c1)c1cc(C(=O)N(C)C)cc2c(=O)cc(N3CCOCC3)oc12 [AZD-8186]  0.743
4. CC(=O)c1c(C)c2cnc(Nc3ccc(N4CCNCC4)cn3)nc2n(C2CCCC2)c1=O [palbociclib]  0.688
5. Cc1c(CN2CCN(C(=O)[C@H](C)O)CC2)sc2c(N3CCOCC3)nc(-c3cnc(N)nc3)nc12 [apitolisib]  0.25
6. CC(C)n1nc(-c2ccc3oc(N)nc3c2)c2c(N)ncnc21 [sapanisertib]  0.118
7. CS(=O)(=O)CCNCc1ccc(-c2ccc3ncnc(Nc4ccc(OCc5cccc(F)c5)c(Cl)c4)c3c2)o1 [lapatinib]  0.0095

same assay, conditions: 625 fM; days in culture: 202

In order of falling “CTG-3D luminescence at 96 h” value:
1. Nc1cc(C(F)(F)F)c(-c2cc(N3CCOCC3)nc(N3CCOCC3)n2)cn1 [buparlisib]  1.69
2. CCOc1ccn(-c2ccc(F)cc2)c(=O)c1C(=O)Nc1ccc(Oc2ccnc(N)c2Cl)c(F)c1 [ASLAN002]  1.61
3. CS(=O)(=O)CCNCc1ccc(-c2ccc3ncnc(Nc4ccc(OCc5cccc(F)c5)c(Cl)c4)c3c2)o1 [lapatinib]  1.54
4. Cc1c(CN2CCN(C(=O)[C@H](C)O)CC2)sc2c(N3CCOCC3)nc(-c3cnc(N)nc3)nc12 [apitolisib]  1.42
5. C[C@@H](Nc1cc(F)cc(F)c1)c1cc(C(=O)N(C)C)cc2c(=O)cc(N3CCOCC3)oc12 [AZD-8186]  1.39
6. CC(=O)c1c(C)c2cnc(Nc3ccc(N4CCNCC4)cn3)nc2n(C2CCCC2)c1=O [palbociclib]  1.22
7. CC(C)n1nc(-c2ccc3oc(N)nc3c2)c2c(N)ncnc21 [sapanisertib]  1.14

same assay, conditions: 625 fM; days in culture: 231

In order of falling “CTG-3D luminescence at 96 h” value:
1. CS(=O)(=O)CCNCc1ccc(-c2ccc3ncnc(Nc4ccc(OCc5cccc(F)c5)c(Cl)c4)c3c2)o1 [lapatinib]  1.39
2. Cc1c(CN2CCN(C(=O)[C@H](C)O)CC2)sc2c(N3CCOCC3)nc(-c3cnc(N)nc3)nc12 [apitolisib]  1.38
3. C[C@@H](Nc1cc(F)cc(F)c1)c1cc(C(=O)N(C)C)cc2c(=O)cc(N3CCOCC3)oc12 [AZD-8186]  1.35
4. Nc1cc(C(F)(F)F)c(-c2cc(N3CCOCC3)nc(N3CCOCC3)n2)cn1 [buparlisib]  1.23
5. CC(=O)c1c(C)c2cnc(Nc3ccc(N4CCNCC4)cn3)nc2n(C2CCCC2)c1=O [palbociclib]  1.21
6. CCOc1ccn(-c2ccc(F)cc2)c(=O)c1C(=O)Nc1ccc(Oc2ccnc(N)c2Cl)c(F)c1 [ASLAN002]  1.06
7. CC(C)n1nc(-c2ccc3oc(N)nc3c2)c2c(N)ncnc21 [sapanisertib]  0.868
